Test results reported in ChEMBL document CHEMBL3112474, “Discovery of substituted lactams as novel dual orexin receptor antagonists. Synthesis, preliminary structure-activity relationship studies and efforts towards improved metabolic stability and pharmacokinetic properties. Part 1” (Bioorg Med Chem Lett, 2014).

Tests used:
Orexin receptor type 2 = molecular target: T1, Orexin receptor type 2 (Homo sapiens, UniProt O43614); assay: Antagonist activity at human orexin 2 receptor expressed in CHO cells assessed as inhibition of orexin-A-induced calcium mobilization by FLIPR assay; assay type: functional, cell-based
T1 sequence (O43614 whole entry): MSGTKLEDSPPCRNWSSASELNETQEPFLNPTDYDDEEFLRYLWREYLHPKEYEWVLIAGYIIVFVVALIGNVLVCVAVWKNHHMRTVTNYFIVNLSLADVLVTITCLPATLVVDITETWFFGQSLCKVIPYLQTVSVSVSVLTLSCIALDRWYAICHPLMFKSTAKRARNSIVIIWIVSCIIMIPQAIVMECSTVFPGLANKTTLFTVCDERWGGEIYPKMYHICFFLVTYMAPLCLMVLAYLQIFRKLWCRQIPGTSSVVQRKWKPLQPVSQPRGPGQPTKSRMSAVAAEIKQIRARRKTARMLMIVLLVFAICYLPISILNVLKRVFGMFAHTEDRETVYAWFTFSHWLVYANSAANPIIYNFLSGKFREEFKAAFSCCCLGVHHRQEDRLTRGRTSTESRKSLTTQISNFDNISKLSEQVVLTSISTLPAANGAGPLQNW

[1] = molecular target: T2, Orexin/Hypocretin receptor type 1 (Homo sapiens, UniProt O43613); assay: Antagonist activity at human orexin 1 receptor expressed in CHO cells assessed as inhibition of orexin-A-induced calcium mobilization by FLIPR assay; assay type: functional, cell-based
T2 sequence (O43613 whole entry): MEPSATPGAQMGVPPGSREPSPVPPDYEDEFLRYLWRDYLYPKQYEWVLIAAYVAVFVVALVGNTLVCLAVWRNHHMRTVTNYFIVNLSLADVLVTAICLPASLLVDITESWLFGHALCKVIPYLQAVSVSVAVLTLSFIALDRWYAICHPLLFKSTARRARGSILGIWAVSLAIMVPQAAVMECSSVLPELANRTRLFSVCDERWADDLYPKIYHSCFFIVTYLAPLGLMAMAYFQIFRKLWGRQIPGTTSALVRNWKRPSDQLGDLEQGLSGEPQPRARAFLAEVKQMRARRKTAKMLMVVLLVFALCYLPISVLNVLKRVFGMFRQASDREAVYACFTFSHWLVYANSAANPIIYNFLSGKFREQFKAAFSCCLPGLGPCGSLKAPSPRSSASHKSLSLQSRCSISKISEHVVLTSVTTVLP

[2] = Intrinsic clearance in human liver microsomes at 1 uM; assay type: ADME; conditions: read-out: CLH
[3] = Half life in human liver microsomes; assay type: ADME
[4] = Ratio of drug level in brain to plasma in Wistar rat at 100 mg/kg, po after 3 hrs; assay type: ADME, organism-based; design: dose 100 mg/kg, route oral; conditions: read-out: BPR
[5] = Plasma concentration in Wistar rat at 100 mg/kg, po after 3 hrs; assay type: ADME, organism-based; design: dose 100 mg/kg, route oral
[6] = Drug level in Wistar rat brain at 100 mg/kg, po after 3 hrs; assay type: ADME, organism-based; design: dose 100 mg/kg, route oral; conditions: read-out: Drug uptake
Cytochrome P450 2D6 = Cytochrome P450 2D6 (Homo sapiens, UniProt P10635); assay: Inhibition of CYP2D6 (unknown origin); assay type: ADME
Cytochrome P450 2C9 = Cytochrome P450 2C9 (Homo sapiens, UniProt P11712); assay: Inhibition of CYP2C9 (unknown origin); assay type: ADME
[7] = Intrinsic clearance in rat liver microsomes at 1 uM; assay type: ADME; conditions: read-out: CLH
Cytochrome P450 3A4 = Cytochrome P450 3A4 (Homo sapiens, UniProt P08684); assay: Inhibition of CYP3A4 (unknown origin); assay type: ADME
MDR1 [8] = assay: Apparent passive permeability across basolateral to apical side in MDCK cells expressing human MDR1; assay type: ADME, cell-based, Canis lupus familiaris; conditions: dog
Cerebrospinal fluid = assay: Drug level in Wistar rat cerebrospinal fluid at 100 mg/kg, po; assay type: ADME, organism-based; design: dose 100 mg/kg, route oral; conditions: in vivo
MDR1 [9] = assay: Apparent passive permeability across apical to basolateral side in MDCK cells expressing human MDR1; assay type: ADME, cell-based, Canis lupus familiaris; conditions: dog

Chain of Cytochrome P450 3A4 (P08684 whole entry): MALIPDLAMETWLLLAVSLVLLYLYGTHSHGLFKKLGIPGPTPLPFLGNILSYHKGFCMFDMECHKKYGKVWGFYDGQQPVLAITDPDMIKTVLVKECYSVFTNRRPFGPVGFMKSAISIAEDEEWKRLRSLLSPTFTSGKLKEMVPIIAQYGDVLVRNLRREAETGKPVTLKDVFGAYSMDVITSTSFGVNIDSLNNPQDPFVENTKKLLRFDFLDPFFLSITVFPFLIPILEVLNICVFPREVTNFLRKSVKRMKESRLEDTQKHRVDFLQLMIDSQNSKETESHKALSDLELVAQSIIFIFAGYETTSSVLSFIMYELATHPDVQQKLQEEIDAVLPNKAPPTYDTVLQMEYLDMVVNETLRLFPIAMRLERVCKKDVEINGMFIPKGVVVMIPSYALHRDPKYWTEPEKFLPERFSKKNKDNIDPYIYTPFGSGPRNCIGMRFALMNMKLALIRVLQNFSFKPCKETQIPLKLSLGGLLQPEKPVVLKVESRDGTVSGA
Chain of Cytochrome P450 2C9 (P11712 whole entry): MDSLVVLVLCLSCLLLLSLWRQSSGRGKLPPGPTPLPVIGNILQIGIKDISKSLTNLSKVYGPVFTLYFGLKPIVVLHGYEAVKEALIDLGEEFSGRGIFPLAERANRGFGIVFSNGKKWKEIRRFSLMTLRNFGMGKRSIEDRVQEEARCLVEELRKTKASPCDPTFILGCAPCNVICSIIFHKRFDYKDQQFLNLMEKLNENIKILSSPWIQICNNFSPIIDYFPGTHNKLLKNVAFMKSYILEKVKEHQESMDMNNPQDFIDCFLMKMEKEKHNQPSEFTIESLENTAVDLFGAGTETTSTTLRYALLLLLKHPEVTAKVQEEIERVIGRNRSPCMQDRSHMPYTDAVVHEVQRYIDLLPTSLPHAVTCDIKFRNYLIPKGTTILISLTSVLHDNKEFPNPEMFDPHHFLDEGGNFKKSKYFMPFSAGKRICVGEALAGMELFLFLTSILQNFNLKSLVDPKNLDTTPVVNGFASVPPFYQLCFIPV
Chain of Cytochrome P450 2D6 (P10635 whole entry): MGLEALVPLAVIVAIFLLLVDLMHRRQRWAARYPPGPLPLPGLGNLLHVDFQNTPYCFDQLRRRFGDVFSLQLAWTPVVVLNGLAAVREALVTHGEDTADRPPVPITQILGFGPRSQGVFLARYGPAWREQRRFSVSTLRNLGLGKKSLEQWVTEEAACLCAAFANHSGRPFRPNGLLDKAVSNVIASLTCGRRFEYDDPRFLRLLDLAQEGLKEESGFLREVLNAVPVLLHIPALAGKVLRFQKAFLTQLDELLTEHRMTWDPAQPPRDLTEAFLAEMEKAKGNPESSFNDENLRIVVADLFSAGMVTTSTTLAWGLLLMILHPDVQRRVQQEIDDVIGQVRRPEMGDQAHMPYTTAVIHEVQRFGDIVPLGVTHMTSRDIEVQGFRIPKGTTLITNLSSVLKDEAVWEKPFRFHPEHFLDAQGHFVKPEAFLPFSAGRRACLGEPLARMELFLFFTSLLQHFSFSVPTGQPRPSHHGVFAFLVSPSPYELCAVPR

| microsomal CLint at 1 µM [2] [µL/min/mg] | Compound | IC50 (Orexin receptor type 2) [nM] | IC50 [1] [nM] | other results |
| --- | --- | --- | --- | --- |
| 1130 | COc1ccnc(OC)c1C1CCCC(=O)N1Cc1ccc2oc3ccccc3c2c1 (racemic) |  |  |  |
| > 1250 | COc1cccc(OC)c1C1CCCC(=O)N1Cc1ccc2ccccc2c1 (racemic) |  |  | half-life [3]: < 1 min |
| > 1250 | COc1cccc(OC)c1C1CCCC(=O)N1Cc1cccc(-n2nccn2)c1 (racemic) |  |  |  |
| > 1250 | COc1cccc(OC)c1C1CCCC(=O)N1Cc1cccc(-c2ncccn2)c1 (configuration not stated) |  |  |  |
| > 1250 | COc1cccc(OC)c1C1CCCC(=O)N1Cc1cccc(-c2ccccn2)c1 (racemic) |  |  |  |
| > 1250 | COc1cccc(OC)c1C1CCCC(=O)N1Cc1cccc(-c2csc(C)n2)c1 (racemic) |  |  |  |
| > 1250 | COc1cccc(OC)c1C1CCCC(=O)N1Cc1ccnc(-c2ccccc2)c1 (racemic) |  |  |  |
| > 1250 | COc1cccc(OC)c1C1CCCC(=O)N1Cc1ccnc(-c2nccs2)c1 (racemic) |  |  |  |
| 912 | COc1ccnc(OC)c1C1CCCC(=O)N1Cc1csc(-c2ccccc2)n1 (racemic) |  |  |  |
| > 1250 | COc1cccc(OC)c1C1CCCC(=O)N1Cc1ccnc(-n2cccn2)c1 (racemic) |  |  |  |
| > 1250 | COc1cccc(OC)c1C1CCCC(=O)N1Cc1cccc(-c2ccccc2)n1 (racemic) |  |  |  |
| 1200 | COc1cccc(OC)c1C1CCCC(=O)N1Cc1ccc2oc3ccccc3c2c1 (racemic) |  |  |  |

Second part, the compound before the results:

| Compound | microsomal CLint at 1 µM [2] [µL/min/mg] | IC50 (Orexin receptor type 2) [nM] | IC50 [1] [nM] | other results |
| --- | --- | --- | --- | --- |
| COc1cccc(OC)c1C1CCCC(=O)N1Cc1csc(-c2ccccc2)n1 (racemic) | > 1250 | 6 | 45 |  |
| COc1cccc(OC)c1C1CCCC(=O)N1Cc1ccccc1 (racemic) |  | 416 | 2420 |  |
| COc1cccc(OC)c1C1CCCC(=O)N1Cc1ccc2sc(C)nc2c1 (racemic) | 860 | 12 | 32 |  |
| COc1cccc(OC)c1C1CC(C)CC(=O)N1Cc1ccc(OC(F)(F)F)cc1 (mixture of isomers) | 645 |  |  |  |
| COc1cccc(OC)c1C1CCCC(=O)N1Cc1ccc(Oc2ccccc2)cc1 (racemic) |  | 29 | 531 |  |
| COc1cccc(OC)c1C1CCCC(=O)N1Cc1cnc2ccccc2c1 (racemic) |  | 217 | 675 |  |
| COc1cccc(OC)c1C1COCC(=O)N1Cc1ccc(OC(F)(F)F)cc1 (racemic) | > 1250 |  |  |  |
| COc1cccc(OC)c1C1CCCC(=O)N1Cc1cccc(-c2ccccc2)c1 (racemic) | > 1250 | 28 | 65 |  |
| COc1ccc2nc(C)oc2c1C1CCCC(=O)N1Cc1cccc(-c2ccccc2)c1 (racemic) | > 1250 | 93 | 54 |  |
| COc1cccc(OC)c1C1CCCC(=O)N1C(C)c1ccc(OC(F)(F)F)cc1 (mixture of isomers) | > 1250 | 21 | 142 |  |
| COc1cccc(OC)c1C1CCCC(=O)N1CCc1ccccc1 (racemic) |  | 1330 | 9700 |  |
| COc1cccc(OC)c1C1CC(C)C(=O)N1Cc1ccc2oc3ccccc3c2c1 (mixture of isomers) | 260 | 9 | 4 |  |
| COc1cccc(OC)c1C1SCC(=O)N1Cc1ccc(OC(F)(F)F)cc1 (racemic) |  | 16 | 155 |  |
| COc1cccc(OC)c1C1CCCC(=O)N1Cc1ccc(OC(F)(F)F)cc1 (racemic) | > 1250 | 25 | 284 | Kp at 3 h [4]: 1.6; concentration at 3 h [5]: 94 ng/mL; concentration at 3 h [6]: 153 ng/g |
| COc1cccc(OC)c1C1C2CC2C(=O)N1Cc1ccc(OC(F)(F)F)cc1 (mixture of isomers) |  | 1070 | 1150 |  |
| COc1ccc2nc(C)oc2c1C1CCCC(=O)N1Cc1cccc(-c2csc(C)n2)c1 (racemic) | > 1250 | 65 | 17 |  |
| COc1cccc(OC)c1C1c2ccccc2C(=O)N1Cc1ccc(OC(F)(F)F)cc1 (racemic) |  | > 10000 | > 10000 |  |
| COc1cccc(OC)c1C1CCC(=O)N1Cc1ccc(OC(F)(F)F)cc1 (racemic) | 670 |  |  |  |
| COc1cccc(OC)c1C1CCCC(=O)N1Cc1ccc2ccccc2n1 (single isomer, unassigned) | > 1250 |  |  | IC50 (Cytochrome P450 2D6): > 30000 nM; IC50 (Cytochrome P450 2C9): > 30000 nM; Kp at 3 h [4]: 0.8; microsomal CLint at 1 µM [7]: > 1250 µL/min/mg; concentration at 3 h [5]: 140 ng/mL; IC50 (Cytochrome P450 3A4): > 30000 nM; Papp B→A (MDR1 [8]): 63.2 ×10⁻⁶ cm/s; Drug uptake (Cerebrospinal fluid): 23 ng/mL; concentration at 3 h [6]: 108 ng/g; Papp A→B (MDR1 [9]): 24.2 ×10⁻⁶ cm/s |
| COc1cccc(OC)c1C1CCCCC(=O)N1Cc1ccc(OC(F)(F)F)cc1 (racemic) | > 1250 | 74 | 264 |  |
| COc1cccc(F)c1C1CCCC(=O)N1Cc1ccc(OC(F)(F)F)cc1 (racemic) |  | 161 |  |  |
| COc1cccc(OC)c1C1CCCC(=O)N1Cc1ccc2ccccc2n1 (racemic) |  |  | 49 |  |
| COc1cccc(OC)c1C1CCC(C)C(=O)N1Cc1ccc(OC(F)(F)F)cc1 (mixture of isomers) | 649 |  |  |  |
| COc1cccc(OC)c1C1COC(=O)N1Cc1ccc(OC(F)(F)F)cc1 (racemic) |  | 771 | 2650 |  |
| COc1cccc(OC)c1[C@H]1C[C@H](C)C(=O)N1Cc1ccc(OC(F)(F)F)cc1 (racemic) | 257 |  |  |  |
| COc1cccc(OC)c1C1CC(C)C(=O)N1Cc1ccc2sc(C)nc2c1 (mixture of isomers) | 88 |  |  |  |
| COc1cc(OC)c(C2CCCCN2Cc2ccc(OC(F)(F)F)cc2)c(OC)c1 (racemic) |  | > 10000 | 1590 |  |
| COc1cccc(OC)c1C1CCCC(=O)N1c1ccccc1 (racemic) |  | > 10000 | > 10000 |  |
